Columns and labels:
[1] = target: T1, kinase domain of IRE1 alpha (Homo sapiens, UniProt O75460, D688N); assay: IRE1α TR-FRET competition binding assay; settings: Kinase Tracer 236 0.1 μM; kinase dead IRE1 alpha KR construct
T1 construct: (KR, AA G547-L977, D688N); made in house; host or cells: Sf9 insect cells
Method: To determine the affinity of compound binding to the kinase domain of IRE1 alpha, a Time Resolved Fluorescence Resonance Energy Transfer (TR-FRET) competition assay was used. A His-tagged IRE1 alpha kinase dead construct containing the kinase and RNase domains (KR, AA G547-L977, D688N) was expressed in Sf9 insect cells. The purified protein (final concentration 0.006 OA micromolar) was pre-incubated with anti-His Europium labeled antibody (Life Technologies PV5596, final concentration 0.002 OA micromolar) for one hour at 4° C. in 1×TR-FRET Assay Buffer (50 mM HEPES, pH 7.5, 10 mM MgCl2, 0.083 mM Brij 35, 1 mM DTT, and 0.1% bovine gamma globulin) prior to addition to test compounds. A fluorescent labeled probe based on an ATP competitive inhibitor (Kinase Tracer 236, Life Technologies PV5592) is added to a final concentration of 0.1 μM (micromolar). Reactions were carried out for one hour at room temperature in a final volume of 20 μL (microliter) in 384 well white ProxiPlates (Perkin Elmer 6008289). Binding of the tracer to the IRE1 protein alpha was detected in an Envision instrument (PerkinElmer) equipped with a TRF laser option and a LANCE/Delfia Dual/Bias D400/D630 mirror (Ex 347 nm, 1st Em 665 nm, 2nd Em 615 nm).
Exemplary compounds depicted in Table 1 were tested in the IRE1α binding assays.

cells = settings: high levels; cited from earlier work

T1 sequence (O75460 547-977 D688N): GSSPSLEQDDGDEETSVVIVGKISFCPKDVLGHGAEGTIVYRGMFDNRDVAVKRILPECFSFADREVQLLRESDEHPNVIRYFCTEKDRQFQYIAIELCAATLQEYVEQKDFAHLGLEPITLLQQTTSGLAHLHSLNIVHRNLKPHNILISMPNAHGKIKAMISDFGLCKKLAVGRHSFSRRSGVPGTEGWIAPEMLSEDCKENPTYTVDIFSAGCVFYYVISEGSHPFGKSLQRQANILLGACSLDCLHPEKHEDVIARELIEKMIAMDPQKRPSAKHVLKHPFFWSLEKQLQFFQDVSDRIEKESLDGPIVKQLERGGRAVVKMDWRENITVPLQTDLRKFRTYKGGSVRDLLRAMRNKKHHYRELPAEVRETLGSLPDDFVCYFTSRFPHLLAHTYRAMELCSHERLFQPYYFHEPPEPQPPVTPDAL

| SMILES | IC50 [1] [nM] | toxicity in cells (cells) |
| --- | --- | --- |
| Cc1ccc2c(NS(=O)(=O)c3ccccc3Cl)cccc2c1Oc1nnccc1-c1ccnc(N[C@H]2CCCNC2)n1 [Compound 1, (S)-2-chloro-N-(6-methyl-5-((4-(2-(piperidin-3-ylamino)pyrimidin-4-yl)pyridazin-3-yl)oxy)naphthalen-1-yl)benzenesulfonamide] | 6.1 |  |
| Cc1ccc2c(NC(=O)C3CC3)cccc2c1Oc1nnccc1-c1ccnc(N[C@H]2CCCNC2)n1 [Compound 2, (S)-N-(6-methyl-5-((4-(2-(piperidin-3-ylamino)pyrimidin-4-yl)pyridazin-3-yl)oxy)naphthalen-1-yl)cyclopropanecarboxamide] | 38 |  |
| CCCS(=O)(=O)Nc1cccc2c(Oc3nnccc3-c3ccnc(N[C@H]4CCCNC4)n3)c(C)ccc12 [Compound 3, (S)-N-(6-methyl-5-((4-(2-(piperidin-3-ylamino)pyrimidin-4-yl)pyridazin-3-yl)oxy)naphthalen-1-yl)propane-1-sulfonamide] | 12 |  |
| Cc1cc(=O)oc2c(C=O)c(O)ccc12 [Compound 4μ8C] |  | no measurable toxicity |

Second part, led by results:

| IC50 [1] [nM] | SMILES | toxicity in cells (cells) |
| --- | --- | --- |
| 3.3 | CCCS(=O)(=O)Nc1c(F)ccc2c(Oc3ncncc3-c3ccnc(N[C@@H]4CNC[C@@H](F)C4)n3)c(C)ccc12 [Compound 4, N-(2-fluoro-5-((2-(((3S,5S)-5-fluoropiperidin-3-yl)amino)-[4,5′-bipyrimidin]-4′-yl)oxy)-6-methylnaphthalen-1-yl)propane-1-sulfonamide] |  |
| 3.1 | Cc1ccc2c(NS(=O)(=O)CCC(C)(F)F)c(F)ccc2c1Oc1nnccc1-c1ccnc(N[C@@H]2CNC[C@@H](F)C2)n1 [Compound 5, 3,3-difluoro-N-[2-fluoro-6-methyl-5-[4-[2-[[-(3S,5S)-5-fluoro-3-piperidyl]amino]pyrimidin-4-yl]pyridazin-3-yl]oxy-1-naphthyl]butane-1-sulfonamide] |  |
| 7.1 | CCCS(=O)(=O)Nc1c(F)ccc2c(Oc3nnccc3-c3ccnc(N[C@@H]4CNC[C@@H](F)C4)n3)c(C)ccc12 [Compound 6, N-(2-fluoro-5-((4-(2-(((3S,5S)-5-fluoropiperidin-3-yl)amino)pyrimidin-4-yl)pyridazin-3-yl)oxy)-6-methylnaphthalen-1-yl)propane-1-sulfonamide] |  |

— patent US20220048888A1, “PYRIMIDINYL-HETEROARYLOXY-NAPHTHYL COMPOUNDS AND METHODS OF USE” (Genentech, Inc., priority 2018, published 2022)
